Results on ten compounds are retold here after ChEMBL document CHEMBL1201862, “PubChem BioAssay data set” (2004).

Activity calls are given as the source filed them.

In assay [1] the target is T1, Cysteine protease ATG4B (Homo sapiens, UniProt Q9Y4P1).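 Also: Fluorescence-based dose-response confirmation assay measuring inhibition of ATG4B activity.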
T1 sequence (Q9Y4P1 whole entry): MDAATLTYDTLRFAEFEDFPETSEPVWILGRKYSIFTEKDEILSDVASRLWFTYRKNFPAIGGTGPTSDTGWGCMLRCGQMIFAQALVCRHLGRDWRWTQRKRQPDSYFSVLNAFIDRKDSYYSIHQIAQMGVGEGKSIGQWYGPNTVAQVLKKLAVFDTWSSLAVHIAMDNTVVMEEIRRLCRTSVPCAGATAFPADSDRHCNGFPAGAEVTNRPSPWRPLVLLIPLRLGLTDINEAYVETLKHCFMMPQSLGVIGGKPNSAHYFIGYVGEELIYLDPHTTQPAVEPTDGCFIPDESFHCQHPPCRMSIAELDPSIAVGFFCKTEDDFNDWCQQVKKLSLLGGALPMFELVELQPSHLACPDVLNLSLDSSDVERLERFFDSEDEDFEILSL
In kind it is functional.

Assay [2] deals with Phospholipase A2 (Homo sapiens, UniProt P04054). The assay is classed as functional.
Phospholipase A2, sequence (P04054 whole entry): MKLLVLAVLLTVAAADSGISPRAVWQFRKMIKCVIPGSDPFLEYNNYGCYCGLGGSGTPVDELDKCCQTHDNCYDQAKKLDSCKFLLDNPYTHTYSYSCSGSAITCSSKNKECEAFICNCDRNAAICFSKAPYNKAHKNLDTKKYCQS
For assay [3], the target named is Nonstructural protein 1 (Influenza A virus, UniProt Q194T2). The assay is classed as functional, Influenza A virus (A/California/07/2009(H1N1)).
Nonstructural protein 1, sequence (Q194T2 whole entry): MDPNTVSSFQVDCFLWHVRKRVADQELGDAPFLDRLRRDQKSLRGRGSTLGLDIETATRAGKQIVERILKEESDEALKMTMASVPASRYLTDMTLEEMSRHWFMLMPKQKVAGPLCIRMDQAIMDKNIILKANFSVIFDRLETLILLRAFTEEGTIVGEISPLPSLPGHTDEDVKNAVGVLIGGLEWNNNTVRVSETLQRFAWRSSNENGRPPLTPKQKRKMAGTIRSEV
The subject of assay [4] is HEK293. Put plainly: cells. The assay is classed as functional, cell-based. The conditions noted are these: Homo sapiens.
Assay [5] concerns the target T2, Nuclear receptor subfamily 0 group B member 1 (Homo sapiens, UniProt P51843).
T2 sequence (P51843 whole entry): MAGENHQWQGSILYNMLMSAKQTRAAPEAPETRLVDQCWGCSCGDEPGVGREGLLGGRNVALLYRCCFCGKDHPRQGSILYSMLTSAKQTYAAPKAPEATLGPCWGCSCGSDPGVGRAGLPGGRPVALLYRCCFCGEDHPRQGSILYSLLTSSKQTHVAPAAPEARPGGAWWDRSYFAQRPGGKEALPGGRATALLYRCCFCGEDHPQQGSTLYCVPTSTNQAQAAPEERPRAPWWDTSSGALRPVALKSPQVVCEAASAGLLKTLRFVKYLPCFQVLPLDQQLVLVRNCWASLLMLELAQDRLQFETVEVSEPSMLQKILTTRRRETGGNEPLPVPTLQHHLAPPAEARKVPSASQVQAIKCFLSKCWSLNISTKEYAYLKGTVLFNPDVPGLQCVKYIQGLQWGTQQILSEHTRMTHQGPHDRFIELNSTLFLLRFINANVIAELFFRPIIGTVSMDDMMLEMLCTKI
Put plainly: Luminescence-based cell-based high throughput dose response assay for inhibitors of the orphan nuclear receptor subfamily 0, group B, member 1 (DAX1; NR0B1). [Related pubchem assays (depositor defined):AID504766, AID504790]. The assay is classed as functional.

Assay [6] deals with HT-1080. As to the kind of experiment: HT1080 cell viability loss – fluorescence readout (AID 620). The settings on record: Homo sapiens. In kind it is functional, cell-based.
Assay [7] concerns the target Luciferin 4-monooxygenase (Photinus pyralis, UniProt P08659). As to the kind of experiment: Counter Screen for Luciferase-based Assay Positives. [Related pubchem assays: 620, 618, 411 ]. (In general: A counterscreen serves to expose hits that act by an unwanted route or on another target.)
In assay [8] the target is Protein-tyrosine kinase 2-beta (Homo sapiens, UniProt Q14289).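 Also: potency of inhibitors of PYK2 kinase phosphorylation of poly-GT substrate.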
Protein-tyrosine kinase 2-beta, sequence (Q14289 whole entry): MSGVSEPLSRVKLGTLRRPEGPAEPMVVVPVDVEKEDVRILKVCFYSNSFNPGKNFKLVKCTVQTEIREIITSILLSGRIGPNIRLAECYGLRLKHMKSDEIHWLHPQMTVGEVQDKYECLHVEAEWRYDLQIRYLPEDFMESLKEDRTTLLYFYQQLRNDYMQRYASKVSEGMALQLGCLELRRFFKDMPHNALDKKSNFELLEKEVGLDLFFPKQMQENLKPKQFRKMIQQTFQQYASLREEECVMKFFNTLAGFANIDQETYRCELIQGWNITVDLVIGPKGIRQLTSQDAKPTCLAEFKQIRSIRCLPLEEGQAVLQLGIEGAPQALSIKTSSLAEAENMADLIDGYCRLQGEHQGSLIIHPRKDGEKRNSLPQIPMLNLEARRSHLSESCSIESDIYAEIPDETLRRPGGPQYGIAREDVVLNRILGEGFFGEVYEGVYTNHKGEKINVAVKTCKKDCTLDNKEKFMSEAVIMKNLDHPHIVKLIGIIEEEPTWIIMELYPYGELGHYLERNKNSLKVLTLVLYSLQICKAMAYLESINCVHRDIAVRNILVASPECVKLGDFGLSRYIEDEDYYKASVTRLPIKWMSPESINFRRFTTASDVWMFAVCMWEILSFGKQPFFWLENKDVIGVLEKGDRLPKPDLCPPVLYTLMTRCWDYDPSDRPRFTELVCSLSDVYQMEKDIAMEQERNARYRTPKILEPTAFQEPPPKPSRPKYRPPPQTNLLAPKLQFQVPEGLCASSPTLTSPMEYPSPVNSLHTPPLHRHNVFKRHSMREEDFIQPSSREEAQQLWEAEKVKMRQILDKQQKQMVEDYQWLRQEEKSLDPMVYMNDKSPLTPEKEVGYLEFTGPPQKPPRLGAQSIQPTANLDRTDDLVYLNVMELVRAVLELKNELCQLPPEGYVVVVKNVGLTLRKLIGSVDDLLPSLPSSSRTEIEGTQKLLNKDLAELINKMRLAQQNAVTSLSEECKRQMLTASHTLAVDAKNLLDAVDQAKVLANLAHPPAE
Assay [9] concerns the target Induced myeloid leukemia cell differentiation protein Mcl-1 (Homo sapiens, UniProt Q07820). In kind it is functional.
The test system of assay [10] is CHO. Put plainly: CHO cell viability loss, potency – luminescence, cytotoxicity control for TLR9-MyD88 binding inhibitor project, dose response (AID 588339).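 Also: CHO cells stably coexpressing TLR9 and MyD88 fusions from primary screen; compound exposure lasted 48 hours before viability readout.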 The assay is classed as functional, cell-based, hamster. The conditions noted are these: Cricetulus griseus.
In assay [11] the target is T3, Corticotropin-releasing factor receptor 2/Corticotropin-releasing factor-binding protein (Homo sapiens, UniProt P24387+Q13324).
T3 sequence (Q13324 whole entry): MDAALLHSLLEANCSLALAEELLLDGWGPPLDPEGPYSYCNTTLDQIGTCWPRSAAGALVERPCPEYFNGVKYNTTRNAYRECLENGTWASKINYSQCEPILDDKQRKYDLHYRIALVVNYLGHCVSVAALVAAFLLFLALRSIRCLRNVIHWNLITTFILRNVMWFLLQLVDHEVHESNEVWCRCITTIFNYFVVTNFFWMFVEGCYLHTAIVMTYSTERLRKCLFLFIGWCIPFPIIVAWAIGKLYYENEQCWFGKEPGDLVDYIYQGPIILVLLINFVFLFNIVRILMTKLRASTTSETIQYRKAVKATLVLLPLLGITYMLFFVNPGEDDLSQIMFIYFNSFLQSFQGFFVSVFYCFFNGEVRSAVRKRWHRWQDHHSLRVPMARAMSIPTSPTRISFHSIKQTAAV
T3 sequence (P24387 whole entry): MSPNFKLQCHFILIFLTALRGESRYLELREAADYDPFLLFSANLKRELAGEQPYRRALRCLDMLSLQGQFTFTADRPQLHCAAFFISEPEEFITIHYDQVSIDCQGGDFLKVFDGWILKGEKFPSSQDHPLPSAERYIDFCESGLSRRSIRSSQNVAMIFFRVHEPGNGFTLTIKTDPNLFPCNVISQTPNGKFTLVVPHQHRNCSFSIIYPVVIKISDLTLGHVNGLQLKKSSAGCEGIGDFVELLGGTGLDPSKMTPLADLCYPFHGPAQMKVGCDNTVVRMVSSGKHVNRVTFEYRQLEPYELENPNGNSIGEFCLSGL
Put plainly: activators of CRF receptor 2 with binding protein – uHTS hits, confirmation (AID 602473). The assay is classed as functional. The conditions noted are these: read-out: EC50_Mean.

Assay [12] in a line: blockers of CRF-binding protein–CRF-R2 complex – cell-based, uHTS hits, 384-well, dose response (AID 651639). In kind it is functional, Homo sapiens. The settings on record: read-out: IC50_Mean.
Assay [13] has as its system Escherichia coli. As to the kind of experiment: microbe, parasite or virus in culture.
Assay [14] addresses T3, Corticotropin-releasing factor receptor 2/Corticotropin-releasing factor-binding protein. Put plainly: Dose Response confirmation of uHTS hits for small molecule antagonists of the CRF-binding protein and CRF-R2 receptor complex. In kind it is functional. The conditions noted are these: read-out: IC50_Mean.
The target of assay [15] is T4, Sentrin-specific protease 7 (Homo sapiens, UniProt Q9BQF6).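 Also: Luminescence-based dose-response confirmation of ultra-high-throughput screening hits, measuring inhibition of SENP7.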
T4 sequence (Q9BQF6 whole entry): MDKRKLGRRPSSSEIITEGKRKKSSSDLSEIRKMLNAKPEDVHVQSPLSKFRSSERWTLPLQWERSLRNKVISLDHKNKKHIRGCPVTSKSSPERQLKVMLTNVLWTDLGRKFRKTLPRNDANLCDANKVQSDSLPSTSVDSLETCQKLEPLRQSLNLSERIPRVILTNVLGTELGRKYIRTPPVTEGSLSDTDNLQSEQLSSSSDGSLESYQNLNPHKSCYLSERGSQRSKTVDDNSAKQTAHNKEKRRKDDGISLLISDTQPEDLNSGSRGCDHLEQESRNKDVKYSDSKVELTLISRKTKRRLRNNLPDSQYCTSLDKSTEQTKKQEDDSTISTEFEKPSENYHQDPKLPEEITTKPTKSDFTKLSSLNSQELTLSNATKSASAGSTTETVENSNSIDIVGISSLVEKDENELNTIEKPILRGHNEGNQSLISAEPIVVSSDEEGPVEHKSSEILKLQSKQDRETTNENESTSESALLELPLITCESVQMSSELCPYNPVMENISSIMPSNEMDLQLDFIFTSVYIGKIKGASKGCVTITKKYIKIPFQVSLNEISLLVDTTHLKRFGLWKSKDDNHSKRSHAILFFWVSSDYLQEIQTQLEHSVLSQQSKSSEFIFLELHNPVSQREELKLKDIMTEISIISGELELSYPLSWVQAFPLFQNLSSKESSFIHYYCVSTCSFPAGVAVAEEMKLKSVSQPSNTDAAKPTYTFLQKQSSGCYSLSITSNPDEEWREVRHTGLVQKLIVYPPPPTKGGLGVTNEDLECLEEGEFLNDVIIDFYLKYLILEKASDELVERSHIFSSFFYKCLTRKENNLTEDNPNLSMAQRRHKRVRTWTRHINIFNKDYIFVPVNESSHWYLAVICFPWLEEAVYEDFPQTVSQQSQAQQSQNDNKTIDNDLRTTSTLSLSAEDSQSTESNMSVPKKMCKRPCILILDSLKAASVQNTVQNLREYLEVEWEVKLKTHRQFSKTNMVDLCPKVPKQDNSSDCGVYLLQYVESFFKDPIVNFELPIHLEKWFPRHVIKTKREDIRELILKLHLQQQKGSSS
In kind it is functional.

The target in assay [16] is T5, Sentrin-specific protease 6 (Homo sapiens, UniProt Q9GZR1).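 Also: Luminescence-based dose-response confirmatory assay of SENP6 inhibition, following up an ultra-high-throughput screen.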
T5 sequence (Q9GZR1 whole entry): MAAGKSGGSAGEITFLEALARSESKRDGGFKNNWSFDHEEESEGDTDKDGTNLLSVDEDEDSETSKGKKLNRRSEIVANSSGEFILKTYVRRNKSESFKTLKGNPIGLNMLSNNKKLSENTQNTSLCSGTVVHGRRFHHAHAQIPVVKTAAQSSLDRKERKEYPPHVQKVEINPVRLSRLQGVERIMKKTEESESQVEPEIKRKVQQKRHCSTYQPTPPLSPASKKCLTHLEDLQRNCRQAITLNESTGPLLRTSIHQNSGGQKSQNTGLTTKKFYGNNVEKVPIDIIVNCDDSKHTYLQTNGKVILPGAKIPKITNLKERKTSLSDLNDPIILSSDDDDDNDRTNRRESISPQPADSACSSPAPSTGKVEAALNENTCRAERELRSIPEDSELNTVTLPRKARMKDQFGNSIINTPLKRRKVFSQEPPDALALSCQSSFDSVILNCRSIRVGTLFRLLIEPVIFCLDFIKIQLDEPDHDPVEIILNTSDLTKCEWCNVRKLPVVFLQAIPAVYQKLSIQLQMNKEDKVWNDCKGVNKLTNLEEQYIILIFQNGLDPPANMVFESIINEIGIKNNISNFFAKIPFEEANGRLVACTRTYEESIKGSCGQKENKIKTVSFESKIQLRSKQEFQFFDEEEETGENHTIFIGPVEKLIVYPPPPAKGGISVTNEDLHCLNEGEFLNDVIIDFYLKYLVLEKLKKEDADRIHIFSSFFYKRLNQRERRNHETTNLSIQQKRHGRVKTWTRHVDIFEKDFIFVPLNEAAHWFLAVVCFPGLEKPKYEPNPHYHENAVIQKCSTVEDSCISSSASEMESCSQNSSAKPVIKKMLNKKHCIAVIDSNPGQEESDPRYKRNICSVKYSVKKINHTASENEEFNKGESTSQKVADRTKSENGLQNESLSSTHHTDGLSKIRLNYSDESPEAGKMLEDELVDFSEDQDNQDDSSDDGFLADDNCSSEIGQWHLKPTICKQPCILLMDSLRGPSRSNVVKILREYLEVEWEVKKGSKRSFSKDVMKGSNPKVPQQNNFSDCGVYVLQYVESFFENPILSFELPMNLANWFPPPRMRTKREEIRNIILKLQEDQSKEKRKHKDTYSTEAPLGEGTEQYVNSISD
The assay is classed as functional.

In assay [17] the target is T6, Sentrin-specific protease 8 (Homo sapiens, UniProt Q96LD8).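 Also: luminescence read-out of SENP8 inhibition, dose-response confirmation following an ultra-high-throughput screen.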
T6 sequence (Q96LD8 whole entry): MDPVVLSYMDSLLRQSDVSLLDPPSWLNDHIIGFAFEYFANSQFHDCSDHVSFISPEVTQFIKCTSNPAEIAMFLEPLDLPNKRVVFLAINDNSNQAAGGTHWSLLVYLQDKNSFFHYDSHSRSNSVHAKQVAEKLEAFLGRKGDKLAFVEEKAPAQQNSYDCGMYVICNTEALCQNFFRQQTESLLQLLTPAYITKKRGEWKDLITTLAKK
In kind it is functional.

For assay [18], the target named is T7, Caspase-3 (Homo sapiens, UniProt P42574).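 Also: Dose-response selectivity test against caspase-3 for candidate inhibitors of sentrin-specific proteases (SENPs).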
T7 sequence (P42574 whole entry): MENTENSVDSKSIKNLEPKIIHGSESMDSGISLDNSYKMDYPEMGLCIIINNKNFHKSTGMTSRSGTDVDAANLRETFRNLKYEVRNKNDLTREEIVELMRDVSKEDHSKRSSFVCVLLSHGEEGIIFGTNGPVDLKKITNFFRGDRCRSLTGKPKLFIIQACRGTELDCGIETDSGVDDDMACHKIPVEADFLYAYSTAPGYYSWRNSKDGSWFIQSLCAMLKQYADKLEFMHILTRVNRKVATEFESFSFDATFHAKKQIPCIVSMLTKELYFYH
The assay is classed as functional.

Induced myeloid leukemia cell differentiation protein Mcl-1, sequence (Q07820 whole entry, the tested form may be a part): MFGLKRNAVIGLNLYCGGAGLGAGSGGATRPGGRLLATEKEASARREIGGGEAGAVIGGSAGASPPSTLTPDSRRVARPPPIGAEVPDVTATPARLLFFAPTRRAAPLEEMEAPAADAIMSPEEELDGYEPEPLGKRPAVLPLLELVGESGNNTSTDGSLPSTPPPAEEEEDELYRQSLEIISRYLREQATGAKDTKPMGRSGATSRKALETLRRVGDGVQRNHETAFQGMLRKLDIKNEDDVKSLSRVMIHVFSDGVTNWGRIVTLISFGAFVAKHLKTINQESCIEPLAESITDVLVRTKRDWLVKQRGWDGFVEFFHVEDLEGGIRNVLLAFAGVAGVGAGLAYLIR
Luciferin 4-monooxygenase, sequence (P08659 whole entry): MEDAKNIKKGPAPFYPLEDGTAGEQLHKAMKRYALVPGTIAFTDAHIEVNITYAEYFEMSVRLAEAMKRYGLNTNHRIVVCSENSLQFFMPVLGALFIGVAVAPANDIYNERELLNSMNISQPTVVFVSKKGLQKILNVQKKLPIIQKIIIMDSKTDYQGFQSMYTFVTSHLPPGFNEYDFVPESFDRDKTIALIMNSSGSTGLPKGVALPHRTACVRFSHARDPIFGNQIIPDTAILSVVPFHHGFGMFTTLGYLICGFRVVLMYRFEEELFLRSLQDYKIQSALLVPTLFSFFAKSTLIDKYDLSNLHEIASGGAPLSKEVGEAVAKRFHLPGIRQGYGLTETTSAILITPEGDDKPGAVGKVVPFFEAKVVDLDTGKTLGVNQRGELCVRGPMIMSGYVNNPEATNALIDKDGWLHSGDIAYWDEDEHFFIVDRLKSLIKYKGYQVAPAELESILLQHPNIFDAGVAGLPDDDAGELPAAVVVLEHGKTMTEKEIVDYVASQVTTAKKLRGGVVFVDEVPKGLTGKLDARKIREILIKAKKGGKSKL

With `COc1ccc(Cl)cc1-n1c(=S)sc2c(O)nc(SCC(=O)NCCC(C)C)nc21`, the IC50 is 19.5 µM (active) in assay [1] and 13.8 µM (active) in assay [2].
Turning to `Clc1ccc(-c2nnc(N3CCCC3)nn2)cc1`, the IC50 in [3] was > 100 µM (active); in [4], > 67.5 µM (inactive); in [5], > 67.5 µM (inactive). Also, the EC50 in assay [6] was > 50 µM (not active); in assay [7], 1.39 µM (active).
Take `COc1ccc(C(=O)c2sc3nc(-c4ccccc4)ccc3c2N)cc1OC`: the IC50 was 12 µM (not active) in assay [8], 1.27 µM (not active) in assay [9] and 27.3 µM (inactive) in [10].
Consider `Nc1c(O)nc(O)nc1C(=O)OCC(=O)NCc1ccccc1`, for which the IC50 in [4] and in [5] was > 67.5 µM (inactive) throughout.
Take `Cc1oc(-c2ccccc2Cl)nc1C[S+]([O-])CC(=O)NCc1ccccc1Cl` (configuration not stated): the IC50 in assay [1] is 16.8 µM (active); in [2], 7.47 µM (active).
Take `O=C(NC(Cc1ccccc1)c1nc2ccccc2[nH]1)c1ccc(Cl)c([N+](=O)[O-])c1` (configuration not stated): the EC50 in assay [11] was > 53 µM (inactive). Further, the IC50 was 4.96 µM (active) in [12] and 11.6 µM (active) in assay [14]. For the same compound, the AC50 in [13] was 25 µM (active).
`O=C1c2ccccc2C(=O)N1CCc1c[nH]c2ccccc12`: the IC50 in assay [4] and in assay [5] was > 67.5 µM (inactive) throughout.
Regarding `CCOC(=O)c1c(C)[nH]c(C(=O)OCC(=O)c2ccccc2)c1C`, the IC50 in [15] was 7.72 µM (active); in [16] it was 24.4 µM (active); in assay [17], 26.4 µM (active); in assay [18], 24.3 µM (active).
For the compound `O=C(Nc1nnc(CCc2ccccc2)s1)c1ccccc1F`, the IC50 in assay [15] is 16.8 µM (active); in [16], > 100 µM (inactive); in [17], > 100 µM (inactive); in assay [18], 18.9 µM (active).
Turning to `O=C(N/N=C/C(Br)=C\c1ccccc1)c1cccs1`, the IC50 in assay [15] is 5.94 µM (active); in [16] it was > 100 µM (inactive); in assay [17], > 100 µM (inactive); in assay [18], 31.6 µM (active).

One may read the AC50 as the concentration at which the activity in the assay is half-maximal.
